# Experimental data reported in patent publication US8653087B2, “Pyrido [5, 4-D] pyrimidines as cell proliferation inhibitors” (Boehringer Ingelheim International GmbH, priority 2008, dated 2014).
# Target: B-Raf (V600E)-kinase (Homo sapiens (Human), UniProt P15056, V600E)
# Experiment: Kinase test B-RAF (V600E)
# Assay type: biochemical
# Details: B-RAF (V600E) kinase test, 250 μM ATP
# Procedure, shortened: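 Read-out is DELFIA europium TRF of phospho-MEK (Ser217/221) on biotinylated MEK1 bound to streptavidin plates, IC50 from dose-response. Reaction ran 60 min at RT with 250 μM ATP, after a 24 h RT preincubation of compound with B-Raf (V600E) kinase, 5% DMSO final.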
# B-Raf (V600E)-kinase, sequence (P15056 whole entry V600E): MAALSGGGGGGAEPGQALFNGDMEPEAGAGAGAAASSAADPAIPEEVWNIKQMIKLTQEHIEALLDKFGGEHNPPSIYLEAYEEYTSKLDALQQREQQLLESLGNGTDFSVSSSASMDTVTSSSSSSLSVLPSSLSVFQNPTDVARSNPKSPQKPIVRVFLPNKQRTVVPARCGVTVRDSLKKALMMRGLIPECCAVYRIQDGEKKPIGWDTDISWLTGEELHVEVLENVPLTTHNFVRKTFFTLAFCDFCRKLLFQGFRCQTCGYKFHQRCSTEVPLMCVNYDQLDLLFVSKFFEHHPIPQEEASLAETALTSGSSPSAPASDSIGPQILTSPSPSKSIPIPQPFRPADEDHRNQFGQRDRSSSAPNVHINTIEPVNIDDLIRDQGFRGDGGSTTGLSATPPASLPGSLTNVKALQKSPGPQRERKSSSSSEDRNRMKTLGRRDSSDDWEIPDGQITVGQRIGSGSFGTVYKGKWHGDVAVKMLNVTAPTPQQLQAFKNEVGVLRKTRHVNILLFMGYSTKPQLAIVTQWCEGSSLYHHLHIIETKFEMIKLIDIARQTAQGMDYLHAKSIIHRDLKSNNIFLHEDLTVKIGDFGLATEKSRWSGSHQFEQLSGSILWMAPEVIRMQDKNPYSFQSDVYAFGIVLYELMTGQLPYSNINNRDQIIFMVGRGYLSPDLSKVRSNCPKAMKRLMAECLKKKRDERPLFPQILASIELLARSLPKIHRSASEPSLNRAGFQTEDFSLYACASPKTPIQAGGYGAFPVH
row,SMILES,IC50 [nM]
1,Cc1ccc(C(=O)Nc2ccc(Cl)c(C(F)(F)F)c2)cc1Nc1ncnc2cnc(N3CCCCC3)nc12 [III-331],10
2,Cc1ccc(C(=O)Nc2cccc(C(C)(C)C#N)c2)cc1Nc1ncnc2cnc(NCC(C)C)nc12 [III-520],2
3,Cc1ccc(C(=O)Nc2cccc(C(C)(C)C#N)c2)cc1Nc1ncnc2cnc(N(C)CCN(C)C)nc12 [III-198],11
4,Cc1ccc(C(=O)Nc2cc(N3CCOCC3)cc(C(F)(F)F)c2)cc1Nc1ncnc2cnc(N3CCOCC3)nc12 [III-525],3
5,COc1ccc(C(=O)Nc2ccc(OC)c(C(F)(F)F)c2)cc1Nc1ncnc2cnc(N3CCCC3)nc12 [III-26],24
6,COCCN(C)c1ncc2ncnc(Nc3cc(C(=O)Nc4ccc(OC)c(C(F)(F)F)c4)ccc3Cl)c2n1 [III-4],2
7,COCCN(C)c1ncc2ncnc(Nc3cc(C(=O)Nc4cc(C(C)(C)C)on4)ccc3F)c2n1 [III-84],2
8,COCCNc1ncc2ncnc(Nc3cc(C(=O)Nc4cc(CN5CCCC5)cc(C(F)(F)F)c4)ccc3C)c2n1 [III-110],1
9,O=C(NC1CCOC1)c1ccc(F)c(Nc2ncnc3cnc(NC4CCOC4)nc23)c1 (stereo not drawn) [III-380],1400
10,Cc1ccc(C(=O)Nc2nnc(C(F)(F)F)s2)cc1Nc1ncnc2cnc(N3CCCC3)nc12 [III-264],2600
11,Cc1cn(-c2cc(NC(=O)c3ccc(C)c(Nc4ncnc5cnc(N6CC[C@H](F)C6)nc45)c3)cc(C(F)(F)F)c2)cn1 [III-454],4
12,Cc1ccc(NC(=O)c2cccc(C(C)(C)C#N)c2)cc1Nc1ncnc2cnc(NC3CCOCC3)nc12 [IV-38],2
13,COc1ccc(NC(=O)c2ccc(F)c(Nc3ncnc4cnc(N5CCCCC5)nc34)c2)cc1C(F)(F)F [III-35],5
14,COc1ccc(NC(=O)c2ccc(C(F)(F)F)c(Nc3ncnc4cnc(N(C)CCN5CCCC5)nc34)c2)cc1C(F)(F)F [III-46],451
15,Cn1nc(C(C)(C)C)cc1NC(=O)c1cc(Cl)cc(Nc2ncnc3cnc(N4CCOCC4)nc23)c1Cl [III-375],2000
16,CC(C)(C)c1cc(NC(=O)c2ccc(Cl)c(Nc3ncnc4cnc(NCCCN5CCOCC5)nc34)c2)no1 [III-74],1
17,Cc1ccc(C(=O)Nc2ccc(F)c(C(F)(F)F)c2)cc1Nc1ncnc2cnc(N3CCCCC3)nc12 [III-329],17
18,Cc1ccc(C(=O)Nc2cc(OCCN(C)C)cc(C(F)(F)F)c2)cc1Nc1ncnc2cnc(N3CCSCC3)nc12 [III-142],3
19,Cc1ccc(C(=O)Nc2cc(CN3CCCC3)cc(C(F)(F)F)c2)cc1Nc1ncnc2cnc(NCc3ccccc3)nc12 [III-105],3
20,Cc1ccc(C(=O)Nc2cc(-n3ccnc3)cc(C(F)(F)F)c2)cc1Nc1ncnc2cnc(N3CCOCC3)nc12 [III-530],582
21,Cc1ccc(C(=O)Nc2ccc(Cl)c(C(F)(F)F)c2)cc1Nc1ncnc2cnc(N3CCCC3)nc12 [III-269],33
22,Cc1ccc(C(=O)Nc2ccc(C#N)c(C(F)(F)F)c2)cc1Nc1ncnc2cnc(N3CC[C@H](F)C3)nc12 [III-292],36

row,SMILES,IC50 [nM]
1,COc1ccc(NC(=O)c2ccc(F)c(Nc3ncnc4cnc(N5CCCC5)nc34)c2)cc1C(F)(F)F [III-38],5
2,COc1ccc(C(=O)Nc2ccc(OC)c(C(F)(F)F)c2)cc1Nc1ncnc2cnc(N(C)C)nc12 [III-29],2
3,Cc1ccc(C(=O)Nc2cccc(S(=O)(=O)N(C)C)c2)cc1Nc1ncnc2cnc(N(C)CCN(C)C)nc12 [III-195],59
4,COc1ncc2ncnc(Nc3cc(C(=O)Nc4cc(N5CCN(C(C)C)CC5)cc(C(F)(F)F)c4)ccc3C)c2n1 [III-567],2
5,COc1ccc(NC(=O)c2ccc(F)c(Nc3ncnc4cnc(NC5CCOC5)nc34)c2)cc1C(F)(F)F (stereo not drawn) [III-390],< 1
6,Cc1ccc(C(=O)Nc2ccccc2)cc1Nc1ncnc2cnc(N(C)CCN(C)C)nc12 [III-202],> 2000
7,Cc1ccc(C(=O)Nc2ccccc2)cc1Nc1ncnc2cnc(N3CCCCC3)nc12 [III-253],269
8,COc1ccc(NC(=O)c2ccc(Cl)c(Nc3ncnc4cnc(N(C)CCN(C)C)nc34)c2)cc1C(F)(F)F [III-5],2
9,COc1ccc(NC(=O)c2ccc(Cl)c(Nc3ncnc4cnc(N5CCOCC5)nc34)c2)cc1C(F)(F)F [III-12],2
10,COc1ccc(NC(=O)c2ccc(C)c(Nc3ncnc4cnc(N5C[C@@H](C)O[C@@H](C)C5)nc34)c2)cc1C(F)(F)F [III-550],4
11,COc1ccc(NC(=O)c2ccc(Cl)c(Nc3ncnc4cnc(N5CCCC5)nc34)c2)cc1C(F)(F)F [III-13],9
12,CC(C)(C)c1cc(NC(=O)c2ccc(Cl)c(Nc3ncnc4cnc(N5CCOCC5)nc34)c2)no1 [III-75],1
13,Cc1ccc(C(=O)Nc2ccc(C#N)c(C(F)(F)F)c2)cc1Nc1ncnc2cnc(N3CCCN(C)CC3)nc12 [III-284],3
14,Cc1ccc(C(=O)NC2CC2)cc1Nc1ncnc2cnc(N3CCOCC3)nc12 [III-194],> 2000
15,Cc1ccc(C(=O)Nc2ccc(F)c(C(F)(F)F)c2)cc1Nc1ncnc2cnc(N3CC[C@H](F)C3)nc12 [III-286],3
16,COCCN(C)c1ncc2ncnc(Nc3cc(C(=O)Nc4cc(N(C)CCN(C)C)cc(C(F)(F)F)c4)ccc3C)c2n1 [III-469],< 1
17,Cc1ccc(C(=O)Nc2cc(C(F)(F)F)ccn2)cc1Nc1ncnc2cnc(NCC(C)C)nc12 [III-519],< 1
18,COc1ncc2ncnc(Nc3cc(C(=O)Nc4cc(N(C)CCN(C)C)cc(C(F)(F)F)c4)ccc3C)c2n1 [III-571],2
19,Cc1ccc(C(=O)Nc2ccc(F)c(C(F)(F)F)c2)cc1Nc1ncnc2cnc(N3CCCC3)nc12 [III-265],4
20,Cc1ccc(C(=O)NCc2cccc(C(F)(F)F)c2)cc1Nc1ncnc2cnc(N3CC[C@@H](F)C3)nc12 [III-207],11
21,COc1ccc(C(F)(F)F)cc1NC(=O)c1ccc(C)c(Nc2ncnc3cnc(N4CC[C@H](F)C4)nc23)c1 [III-288],2

# Now from value to compound:
row,IC50 [nM],SMILES
1,4,Cc1ccc(C(=O)Nc2cc(C(C)(C)C)n[nH]2)cc1Nc1ncnc2c(N)nc(N3CCN4CCCCC4C3)nc12 (stereo not drawn) [I-43]
2,1,Cc1ccc(NC(=O)c2cccc(C(C)(C)C#N)c2)cc1Nc1ncnc2cnc(N3CCN(C)CC3)nc12 [IV-7]
3,> 7000,Cc1ccc(C(=O)NCC2CCOC2)cc1Nc1ncnc2cnc(N3CCCN(C)CC3)nc12 (stereo not drawn) [III-179]
4,2000,Cc1ccc(C(=O)NC2CC2)cc1Nc1ncnc2cnc(N3CCCC3)nc12 [III-260]
5,58,COc1ccc(C(=O)Nc2cccc(C(F)(F)F)c2)cc1Nc1ncnc2c(N)nc(N3CCCN(C)CC3)nc12 [I-31]
6,2,Cc1ccc(C(=O)Nc2cc(C(C)(C)C)n[nH]2)cc1Nc1ncnc2c(N)nc(N3CCN(C4CCN(C)CC4)CC3)nc12 [I-12]
7,9,Cc1ccc(C(=O)Nc2cc(Br)cc(C(F)(F)F)c2)cc1Nc1ncnc2c(N)nc(N3CCN(C)CC3)nc12 [I-2]
8,< 1,Cc1ccc(C(=O)Nc2cc(C(C)(C)C)n[nH]2)cc1Nc1ncnc2cnc(NC3CCOC3)nc12 (stereo not drawn) [III-353]
9,1,Cc1ccc(C(=O)Nc2cc(C(C)(C)C)on2)cc1Nc1ncnc2cnc(N3CCN(CC4CCCN(C)C4)CC3)nc12 (stereo not drawn) [III-483]
10,4,Cc1ccc(C(=O)Nc2ccc(Cl)c(C(F)(F)F)c2)cc1Nc1ncnc2cnc(N3CCN(C)CC3)nc12 [III-300]
11,21,COc1ccc(C(C)(C)C)cc1NC(=O)c1ccc(C)c(Nc2ncnc3cnc(N4CC[C@H](F)C4)nc23)c1 [III-291]
12,14,COc1ccc(C(=O)Nc2cccc(C(F)(F)F)c2)cc1Nc1ncnc2c(N)nc(N3CCN(C4CCN(C)CC4)CC3)nc12 [I-32]
13,4,Cc1ccc(C(=O)Nc2cc(CN3CCCC3)cc(C(F)(F)F)c2)cc1Nc1ncnc2cnc(N3CCC3)nc12 [III-100]
14,2,Cc1ccc(C(=O)Nc2cc(C(C)(C)C)on2)cc1Nc1ncnc2cnc(N3CCC(N(C)C)CC3)nc12 [III-495]
15,3,COc1ccc(NC(=O)c2ccc(C)c(Nc3ncnc4cnc(N5CCN(CC6CCCN(C)C6)CC5)nc34)c2)cc1C(F)(F)F (stereo not drawn) [III-554]
16,4,Cc1ccc(C(=O)Nc2cc(C(C)(C)C)n[nH]2)cc1Nc1ncnc2c(N)nc(N3C[C@H]4C[C@@H]3CN4C)nc12 [I-36]
17,6,Cc1ccc(C(=O)Nc2cccc(C(C)(C)C#N)c2)cc1Nc1ncnc2cnc(N3CCCC3)nc12 [III-276]
18,23,COc1ccc(NC(=O)c2ccc(C)c(Nc3ncnc4cnc(N5CCC(N6CCOCC6)CC5)nc34)c2)cc1C(F)(F)F [III-558]
19,106,COCCN1CCN(c2ncc3ncnc(Nc4cc(C(=O)Nc5cc(C(F)(F)F)ccc5N5CCOCC5)ccc4C)c3n2)CC1 [III-534]
20,1,COc1ccc(NC(=O)c2ccc(Cl)c(Nc3ncnc4cnc(N5CCCN(C)CC5)nc34)c2)cc1C(F)(F)F [III-7]
21,2,Cc1ccc(C(=O)Nc2cc(CN3CCCC3)c(Cl)c(C(F)(F)F)c2)cc1Nc1ncnc2cnc(N3CCOCC3)nc12 [III-528]
22,2000,Cc1ccc(NS(=O)(=O)CC2CCCO2)cc1Nc1ncnc2cnc(N3CCN(C)CC3)nc12 (stereo not drawn) [IV-62]
23,2,Cc1ccc(C(=O)Nc2cc(C(C)(C)C)n[nH]2)cc1Nc1ncnc2c(N)nc(N3CCN4CCCC4C3)nc12 (stereo not drawn) [I-34]
24,7,COCCN1CCN(c2ncc3ncnc(Nc4cc(C(=O)Nc5ccc6c(c5)OC(F)(F)OC6(F)F)ccc4C)c3n2)CC1 [III-608]
25,47,Cc1ccc(C(=O)NCc2cccc(C(C)(C)C)c2)cc1Nc1ncnc2cnc(N3CCCCC3)nc12 [III-308]
26,< 1,Cc1ccc(C(=O)Nc2cccc(C(F)(F)F)c2)cc1Nc1ncnc2cnc(N3CCN(CC4CCN(C)CC4)CC3)nc12 [III-417]
27,5,COc1cc(NC(=O)c2ccc(C)c(Nc3ncnc4c(N)nc(N5CCN(C)CC5)nc34)c2)cc(C(F)(F)F)c1 [I-54]
28,4,Cc1ccc(C(=O)Nc2cc(C(C)(C)C)n[nH]2)cc1Nc1ncnc2c(N)nc(N3CCN(CC4CCN(C)CC4)CC3)nc12 [I-13]
29,41,Cc1ccc(NC(=O)c2cccc(C(F)(F)F)c2)cc1Nc1ncnc2c(N)nc(N3CCCN(C)CC3)nc12 [II-2]
